Target: human TMEM16A (TMEM16Aabc variant) (Homo sapiens, UniProt Q5XXA6, DEL476-501, form not given)
Experiment: Automated whole-cell patch clamp (Qpatch) TMEM16A potentiator assay in FRT cells stably expressing human TMEM16A
Assay type: cell-based
Conditions: for % Potentiation @ 3.33 μM Avg: 3.33 μM solution of test compound, percentage increase of baseline TMEM16A current; for EC50: calculated EC50, Qpatch TMEM16A current at +70 mV
How it was run: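 Potentiation was read as the rise in peak +70 mV current over baseline (%), from cumulative 5-min additions of compound. Recordings used whole-cell automated patch of FRT cells stably carrying human TMEM16Aabc, with pipette Ca2+ buffered to give ~20% maximal current. EC50 and efficacy came from concentration-response fits.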

Chain of human TMEM16A (TMEM16Aabc variant) (Q5XXA6 with tags, fused parts or gaps DEL476-501): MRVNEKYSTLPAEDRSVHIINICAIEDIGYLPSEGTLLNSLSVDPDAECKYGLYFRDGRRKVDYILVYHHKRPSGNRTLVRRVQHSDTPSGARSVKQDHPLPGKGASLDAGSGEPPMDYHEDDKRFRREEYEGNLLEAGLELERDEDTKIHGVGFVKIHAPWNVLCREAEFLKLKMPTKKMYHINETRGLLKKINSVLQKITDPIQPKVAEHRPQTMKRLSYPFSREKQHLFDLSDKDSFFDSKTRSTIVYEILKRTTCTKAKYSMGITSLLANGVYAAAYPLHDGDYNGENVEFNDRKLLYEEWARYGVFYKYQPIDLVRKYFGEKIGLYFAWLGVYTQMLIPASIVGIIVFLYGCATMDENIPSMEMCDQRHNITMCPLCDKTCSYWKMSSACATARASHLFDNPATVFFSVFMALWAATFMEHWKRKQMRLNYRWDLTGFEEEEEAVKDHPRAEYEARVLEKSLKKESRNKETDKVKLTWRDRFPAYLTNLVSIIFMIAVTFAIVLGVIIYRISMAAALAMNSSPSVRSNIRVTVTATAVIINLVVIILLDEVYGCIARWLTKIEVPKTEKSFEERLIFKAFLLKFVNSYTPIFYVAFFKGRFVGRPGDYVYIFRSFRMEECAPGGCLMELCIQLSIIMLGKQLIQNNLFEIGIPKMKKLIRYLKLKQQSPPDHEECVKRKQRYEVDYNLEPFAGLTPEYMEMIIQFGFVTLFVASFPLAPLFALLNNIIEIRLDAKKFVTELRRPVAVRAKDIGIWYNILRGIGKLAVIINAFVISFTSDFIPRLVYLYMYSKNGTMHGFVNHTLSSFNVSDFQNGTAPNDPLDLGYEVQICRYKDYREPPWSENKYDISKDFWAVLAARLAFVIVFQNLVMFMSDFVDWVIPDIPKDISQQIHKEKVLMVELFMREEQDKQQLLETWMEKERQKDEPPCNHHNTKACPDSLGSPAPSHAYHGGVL

SMILES	% Potentiation @ 3.33 μM Avg [%]	EC50 [µM]
N#CC1(NC(=O)c2cc(NC(=O)Cc3ccccc3Cl)ccn2)CC1 [Example 30.7, 4-[[2-(2-Chlorophenyl)acetyl]amino]-N-(1-cyanocyclopropyl)pyridine-2-carboxamide]	124	0.34
CC1(NC(=O)c2cc(NC(=O)Cc3ccccc3Cl)ccn2)CC1 [Example 30.8, 4-[[2-(2-Chlorophenyl)acetyl]amino]-N-(1-methylcyclopropyl)pyridine-2-carboxamide]	121	0.7
O=C(Cc1ccccc1Cl)Nc1ccnc(C(=O)NC23CC(F)(C2)C3)c1 [Example 30.9, 4-[[2-(2-Chlorophenyl)acetyl]amino]-N-(3-fluoro-1-bicyclo[1.1.1]pentanyl)pyridine-2-carboxamide]	100	0.47
CC(C)(CF)NC(=O)c1cc(NC(=O)Cc2ccccc2Cl)ccn1 [Example 30.10, 4-[[2-(2-Chlorophenyl)acetyl]amino]-N-(2-fluoro-1,1-dimethyl-ethyl)pyridine-2-carboxamide]	265	–
C#CC1(NC(=O)c2cc(NC(=O)Cc3ccccc3Cl)ccn2)CCOCC1 [Example 30.11, 4-[[2-(2-Chlorophenyl)acetyl]amino]-N-(4-ethynyltetrahydropyran-4-yl)pyridine-2-carboxamide]	125	0.22
N#CC1(NC(=O)c2cc(NC(=O)Cc3ccccc3Cl)ccn2)CCCC1 [Example 30.12, 4-[[2-(2-Chlorophenyl)acetyl]amino]-N-(1-cyanocyclopentyl)pyridine-2-carboxamide]	314	–
CC(C)(NC(=O)c1cc(NC(=O)Cc2ccccc2Cl)ccn1)C(F)F [Example 30.13, 4-[[2-(2-Chlorophenyl)acetyl]amino]-N-(2,2-difluoro-1,1-dimethyl-ethyl)pyridine-2-carboxamide]	205	0.38
N#CC1(NC(=O)c2cc(NC(=O)Cc3cc(Cl)ccc3O)ccn2)CCOCC1 [Example 31, 4-[[2-(5-Chloro-2-hydroxy-phenyl)acetyl]amino]-N-(4-cyanotetrahydropyran-4-yl)pyridine-2-carboxamide]	223	0.12
C#CC1(NC(=O)c2cc(NC(=O)Cc3cc(Cl)ccc3O)ccn2)CCCC1 [Example 31.2, 4-[[2-(5-Chloro-2-hydroxy-phenyl)acetyl]amino]-N-(1-ethynylcyclopentyl)pyridine-2-carboxamide]	110	0.01
O=C(Cc1cc(Cl)ccc1O)Nc1ccnc(C(=O)N[C@H]2CCCC[C@@H]2O)c1 [Example 31.3, 4-[2-(5-Chloro-2-hydroxyphenyl)acetamido]-N-[(1s,2s)-2-hydroxycyclohexyl] pyridine-2-carboxamide]	205	0.21
C#CC1(NC(=O)c2cc(NC(=O)Cc3cc(Cl)ccc3O)ccn2)CCOCC1 [Example 31.4, 4-[[2-(5-Chloro-2-hydroxy-phenyl)acetyl]amino]-N-(4-ethynyltetrahydropyran-4-yl)pyridine-2-carboxamide]	186	0.02
Nc1cccc(CNC(=O)c2cc(NC(=O)Cc3cc(Cl)ccc3O)ccn2)n1 [Example 32, N-[(6-Amino-2-pyridyl)methyl]-4-[[2-(5-chloro-2-hydroxy-phenyl)acetyl]amino]pyridine-2-carboxamide]	171	–
O=C(O)CCCCCCCCCCCNC(=O)c1cc(NC(=O)Cc2cc(Cl)ccc2O)ccn1 [Example 32.1, 12-[[4-[[2-(5-Chloro-2-hydroxy-phenyl)acetyl]amino]pyridine-2-carbonyl]amino]dodecanoic acid]	246	–
O=C(Cc1cc(Cl)ccc1O)Nc1ccnc(C(=O)NCc2cccnc2)c1 [Example 32.2, 4-[[2-(5-Chloro-2-hydroxy-phenyl)acetyl]amino]-N-(3-pyridylmethyl)pyridine-2-carboxamide]	183	0.34
O=C(Cc1cc(Cl)ccc1O)Nc1ccnc(C(=O)NCc2ccccn2)c1 [Example 32.3, 4-[[2-(5-Chloro-2-hydroxy-phenyl)acetyl]amino]-N-(2-pyridylmethyl)pyridine-2-carboxamide]	288	0.29
O=C(Cc1cc(Cl)ccc1O)Nc1ccnc(C(=O)NCc2ccncc2)c1 [Example 32.4, 4-[[2-(5-Chloro-2-hydroxy-phenyl)acetyl]amino]-N-(4-pyridylmethyl)pyridine-2-carboxamide]	187	0.71

SMILES	% Potentiation @ 3.33 μM Avg [%]	EC50 [µM]
O=C(Cc1cc(Cl)ccc1O)Nc1ccnc(C(=O)NCc2ccccc2O)c1 [Example 32.5, 4-[[2-(5-Chloro-2-hydroxy-phenyl)acetyl]amino]-N-[(2-hydroxyphenyl)methyl]pyridine-2-carboxamide]	177	0.59
CC(C)(CN1CCOCC1)NC(=O)c1cc(NC(=O)Cc2cc(Cl)ccc2O)ccn1 [Example 32.6, 4-[[2-(5-Chloro-2-hydroxy-phenyl)acetyl]amino]-N-(1,1-dimethyl-2-morpholino-ethyl)pyridine-2-carboxamide]	153	0.82
CC(C)(CO)NC(=O)c1cc(NC(=O)Cc2cc(Cl)ccc2O)ccn1 [Example 32.7, 4-[[2-(5-Chloro-2-hydroxy-phenyl)acetyl]amino]-N-(2-hydroxy-1,1-dimethyl-ethyl)pyridine-2-carboxamide]	111	0.2
O=C(Cc1cc(Cl)ccc1O)Nc1ccnc(C(=O)NC2CCNCC2(F)F)c1 (stereo not drawn) [Example 32.8, 4-[[2-(5-Chloro-2-hydroxy-phenyl)acetyl]amino]-N-(3,3-difluoro-4-piperidyl)pyridine-2-carboxamide]	79	–
O=C(Cc1cc(Cl)ccc1O)Nc1ccnc(C(=O)Nc2ncc[nH]2)c1 [Example 32.9, 4-[[2-(5-Chloro-2-hydroxy-phenyl)acetyl]amino]-N-(1H-imidazol-2-yl)pyridine-2-carboxamide]	31	–
O=C(Cc1cc(Cl)ccc1O)Nc1ccnc(C(=O)N[C@@H]2CCC[C@H]2O)c1 [Example 33, 4-[[2-(5-Chloro-2-hydroxy-phenyl)acetyl]amino]-N-[(1R,2R)-2-hydroxycyclopentyl] pyridine-2-carboxamide]	245	0.24
CC(C)(C#N)NC(=O)c1cc(NC(=O)Cc2cc(Cl)ccc2O)ccn1 [Example 34, 4-[[2-(5-Chloro-2-hydroxy-phenyl)acetyl]amino]-N-(1-cyano-1-methyl-ethyl)pyridine-2-carboxamide]	245	0.09
CC1(O)CCC(NC(=O)c2cc(NC(=O)Cc3cc(Cl)ccc3O)ccn2)CC1 (stereo not drawn) [Example 35.1, 4-[[2-(5-Chloro-2-hydroxy-phenyl)acetyl]amino]-N-(4-hydroxy-4-methyl-cyclohexyl) pyridine-2-carboxamide]	51	–
O=C(Cc1cc(Cl)ccc1O)Nc1ccnc(C(=O)N[C@H]2CCCC[C@H]2CO)c1 [Example 35.2, 4-[[2-(5-Chloro-2-hydroxy-phenyl)acetyl]amino]-N-[(1s,2r)-2-(hydroxymethyl)cyclohexyl]pyridine-2-carboxamide]	300	0.61
O=C(Cc1cc(Cl)ccc1O)Nc1ccnc(C(=O)N[C@H]2CC[C@@H](O)C2)c1 [Example 35.3, 4-[[2-(5-Chloro-2-hydroxy-phenyl)acetyl]amino]-N-[(1s,3r)-3-hydroxycyclopentyl]pyridine-2-carboxamide]	144	–
CC(CO)(CO)NC(=O)c1cc(NC(=O)Cc2cc(Cl)ccc2O)ccn1 [Example 35.4, 4-[[2-(5-Chloro-2-hydroxy-phenyl)acetyl]amino]-N-[2-hydroxy-1-(hydroxymethyl)-1-methyl-ethyl]pyridine-2-carboxamide]	138	–
O=C(Cc1cc(Cl)ccc1O)Nc1ccnc(C(=O)NC2CCCC(O)C2)c1 (stereo not drawn) [Example 35.6, 4-[[2-(5-Chloro-2-hydroxy-phenyl)acetyl]amino]-N-(3-hydroxycyclohexyl)pyridine-2-carboxamide]	53	–
O=C(Cc1cc(Cl)ccc1O)Nc1ccnc(C(=O)NCCCOc2ccccc2)c1 [Example 35.7, 4-[[2-(5-Chloro-2-hydroxy-phenyl)acetyl]amino]-N-(3-phenoxypropyl)pyridine-2-carboxamide]	97	–
CC1(NC(=O)c2cc(NC(=O)Cc3cc(Cl)ccc3O)ccn2)CC1 [Example 35.8, 4-[[2-(5-Chloro-2-hydroxy-phenyl)acetyl]amino]-N-(1-methylcyclopropyl)pyridine-2-carboxamide]	250	0.18
CC(C)(NC(=O)c1cc(NC(=O)Cc2cc(Cl)ccc2O)ccn1)c1ccccn1 [Example 35.9, 4-[[2-(5-Chloro-2-hydroxy-phenyl)acetyl]amino]-N-[1-methyl-1-(2-pyridyl)ethyl]pyridine-2-carboxamide]	455	0.54
